# From patent US10570099B2, “Salts of an epidermal growth factor receptor kinase inhibitor” (Celgene CAR LLC, priority 2012, dated 2020)
# Structures can show the parent of a compound that is named as a salt.
# What was measured:
# [1] = Shake flask solubility of potential salts in aqueous medium (pH<2); format: physicochemical; settings: pH<2, ca. 24 hours shaking, HPLC
# Method: The solubility of the potential salts was tested using a shake flask method whereby a slurry of each salt was prepared in deionized water and the pH of the reaction was reduced to below pH 2 by adding a small amount of the counterion used for salt formation. The pH was tested using universal indicator paper.
# (§1) (open vials). TGA was carried out after the stability studies for samples containing sufficient material.
# [2] = 1 week stability of primary screen salts at 40° C./75% RH and 80° C. (open vials, XRPD); format: physicochemical
# Method: as §1
# [3] = Dog PK Study 2 (gastric pH adjustment, food effect); format: in vivo, beagle dogs; settings: 30 mg/kg, plasma compound 1, dogs (n = 3), capsule orally 30 mg/kg, mean (% CV); for AUC(0-t): read-out: AUC0-24
# Method: Compound 1 free base and compound 2, as the Form I monohydrobromide (HBr) salt, were evaluated in a cross-over dog PK study in which male dogs were pre-treated with either pentagastrin (to decrease gastric pH) or famotidine (to increase gastric pH) prior to oral dosing to control gastric pH. In addition, the effect of food on the systemic exposure to compound 1 was also evaluated in dogs receiving Form I HBr with pentagastrin pre-treatment. Compound 1 free base capsule consisted of compound 1 free base in Vitamin E TPGS and PEG 400 filled into a capsule. The Form I hydrobromide salt capsule consisted of Form I HBr alone filled into a capsule.
# There was a minimum 6-day washout between dosing. On the day of dosing under fed condition, dogs were given 60 gram of a high fat diet (Harlan Teklad 2027C) and allowed to consume all of the food within 15-20 minutes. The animals were given a 10-minute rest period and then the capsule doses were administered. Plasma samples were collected at pre-dose and 0.5, 1, 2, 4, 6, 8, 12 and 24 hours post dose.
# [4] = Dog PK Study 1 (cross-over, fasted); format: in vivo, beagle dogs; settings: male, beagle, po; for AUC(0-t): read-out: AUC0-24; for Tmax: median
# Method: Compound 1 free base and compound 2, as the Form I monohydrobromide (HBr) salt, were evaluated in a cross-over dog PK study. Compound 1 free base capsule consisted of compound 1 free base in Vitamin E TPGS and PEG 400 filled into a capsule. The Form I hydrobromide salt capsule consisted of Form I HBr alone filled into a capsule.
# Compound 1 free base capsule and Form I HBr capsule were dosed orally at 28.5 and 24.5 mg/kg (as active) QD, respectively, to three fasted male non-naïve beagle dogs (body weight range: 10.1-10.8 kg) with a 5-day washout period. Approximately 5 mL of tap water was orally administered to encourage swallowing and ensure delivery of capsules into the stomach. Plasma samples were collected at pre-dose and 0.5, 1, 2, 4, 6, 8, 12 and 24 hours post dose. The plasma concentrations of compound 1 were determined by a liquid chromatography-tandem mass spectrometry (LC/MS/MS) method.
# [5] = 1 week stability study (XRPD and HPLC); format: physicochemical
# Method: (§2) Resulting solids were analysed by XRPD and HPLC to establish if any changes had occurred.
# as §2
# The resulting solids were analysed by XRPD and HPLC to establish if any changes had occurred.
# [6] = Dynamic vapour sorption (DVS); format: physicochemical
# Method: For dynamic vapour sorption (DVS), approximately 10-20 mg of sample was placed into a wire mesh vapour sorption balance pan and loaded into a DVS-1 dynamic vapour sorption balance by Surface Measurement Systems. The sample was subjected to a ramping profile from 20-90% relative humidity (RH) at 10% increments, maintaining the sample at each step until a stable weight had been achieved (99.5% step completion). After completion of the sorption cycle, the sample was dried using the same procedure, but all the way down to 0% RH and finally taken back to the starting point of 20% RH. The weight change during the sorption/desorption cycles were plotted, allowing for the hygroscopic nature of the sample to be determined.
# [7] = Thermodynamic solubility in media of various pH (HPLC; XRPD of excess solids); settings: for Thermodynamic Solubility: ca. 24 hours
# Method: The remaining solids were also analysed by XRPD analysis to establish if any changes in the solid form occurred.
# The remaining solids were also analysed by XRPD analysis to establish if any changes in the solid form occurred. For the buffer solutions, KCl/HCl was used for pH 1 and citrate/phosphate combinations for pH 3, 4.5 and 6.6.
# The remaining solids were also analysed by XRPD analysis to establish if any changes in the solid form occurred. For the buffer solutions, KCl/HCl was used for pH 1 and citric acid/sodium citrate combinations for pH 3, 4.5 and 6.2.
# The solids were then removed by filtration and tested by XRPD analysis. The mother liquors were analyzed by HPLC to determine API solubility.
# For the buffer solutions, KCl/HCl was used for pH 1 and citrate/phosphate combinations for pH 3, 4.5 and 6.6 (10 mM). The pH of the solutions was also measured prior to HPLC analysis.
# [8] = plasma compound 1, fasted dogs, capsule orally 28.5 mg/kg, mean, dog #3 excluded
# [9] = dog, plasma compound 1, fasted dogs (n = 3), capsule orally 24.5 mg/kg, mean (% CV)
# [10] = 25° C., closed container, 7 day
# [11] = 80° C., closed container, 7 day
structure (smiles),measurement,setting,value
"C=CC(=O)Nc1cccc(Nc2nc(Nc3ccc(N4CCN(C(C)=O)CC4)cc3OC)ncc2C(F)(F)F)c1.O=C(O)c1c(O)cc(O)cc1O [2,4,6-Trihydroxybenzoate Form II]",Approximate Solubility,[1],Below LOQ
"C=CC(=O)Nc1cccc(Nc2nc(Nc3ccc(N4CCN(C(C)=O)CC4)cc3OC)ncc2C(F)(F)F)c1.O=C(O)c1c(O)cc(O)cc1O [2,4,6-Trihydroxybenzoate Form I]",Approximate Solubility,[1],Below LOQ
same,Stability 40° C./75% RH (open conditions),[2],"No form change,"
same,Stability 80° C. (open conditions),[2],"No form change,"
C=CC(=O)Nc1cccc(Nc2nc(Nc3ccc(N4CCN(C(C)=O)CC4)cc3OC)ncc2C(F)(F)F)c1 [Compound 1 (Free Base)],AUC(0-t),"[3]; male, beagle, dog, plasma, po, Pentagastrin, fasted",7810 ng·h/mL
same,Cmax,"[3]; male, beagle, dog, plasma, po, Pentagastrin, fasted, read-out: Cmax",1820 ng/mL
same,AUC0-24,"[3]; Famotidine, fasted",163 (3%) ng · h/mL
same,Cmax,"[3]; Famotidine, fasted",57 (24%) ng/mL
same,Cmax,[4]; [8],120 ng/mL
same,half-life,[4]; [8],2.1 h
same,AUC(0-t),[4]; [8],278 ng·h/mL
same,Tmax,"[4]; plasma compound 1, fasted dogs, capsule orally 28.5 mg/kg, dog #3 excluded",1 h
C=CC(=O)Nc1cccc(Nc2nc(Nc3ccc(N4CCN(C(C)=O)CC4)cc3OC)ncc2C(F)(F)F)c1 [Compound 2 (Form I Hydrobromide)],AUC(0-t),"[3]; male, beagle, dog, plasma, po, Pentagastrin, fed",13900 ng·h/mL
same,Cmax,"[3]; male, beagle, dog, plasma, po, Pentagastrin, fed, read-out: Cmax",3970 ng/mL
same,AUC0-24,"[3]; Famotidine, fasted",4010 (54%) ng · h/mL
same,Cmax,"[3]; Famotidine, fasted",1180 (20%) ng/mL
same,AUC0-24,"[3]; Pentagastrin, fasted",9450 (31%) ng · h/mL
same,Cmax,"[3]; Pentagastrin, fasted",2860 (39%) ng/mL
same,half-life,"[4]; dog, plasma compound 1, fasted dogs (n = 3), capsule orally 24.5 mg/kg, mean",2.4 h
same,Cmax,[4]; [9],1420 ng/mL
same,AUC(0-t),[4]; [9],5260 ng·h/mL
same,Tmax,"[4]; dog, plasma compound 1, fasted dogs (n = 3), capsule orally 24.5 mg/kg",2 h
Br.C=CC(=O)Nc1cccc(Nc2nc(Nc3ccc(N4CCN(C(C)=O)CC4)cc3OC)ncc2C(F)(F)F)c1 [Form III hydrobromide salt],HPLC purity after storage,[5]; [10],98.9%
same,XRPD after storage,[5]; [10],Form I
same,HPLC purity after storage,"[5]; 25° C., open container, 7 day",98.2%
same,XRPD after storage,"[5]; 25° C., open container, 7 day",Form I
same,HPLC purity after storage,"[5]; 40° C./75% RH, closed (crimped) vial, 1 week",99.0%
same,XRPD after storage,"[5]; 40° C./75% RH, closed (crimped) vial, 1 week, listed as Form III",Form I
same,HPLC purity after storage,"[5]; 40° C./75% RH, open vial, 1 week",98.3%
same,XRPD after storage,"[5]; 40° C./75% RH, open vial, 1 week, listed as Form III",Form I
same,HPLC purity after storage,[5]; [11],99.0%
same,XRPD after storage,[5]; [11],Form I
same,HPLC purity after storage,"[5]; 80° C., open vial, 1 week, listed as Form III",98.7%
same,hygroscopicity (DVS),[6],slightly hygroscopic
same,"Moisture uptake, Cycle 3 Sorption",[6]; 0-20% RH,ca. 0.535%
same,"mass uptake, Cycle 1 Sorption",[6]; 20-90% RH,ca. 1.045%
same,"mass decrease, Cycle 2 Desorption",[6]; 90-0% RH,ca. 1.983%
same,post DVS XRPD analysis (polymorphic form),"[6]; after DVS cycles, listed as Form III",converted to Form I hydrobromide salt
same,pH prior to analysis,[7]; Buffer pH 1,0.95
same,pH prior to analysis,[7]; Buffer pH 3,1.53
same,pH prior to analysis,[7]; Buffer pH 4.5,1.79
same,pH prior to analysis,[7]; Buffer pH 6.6,1.79
same,XRPD of excess solids,"[7]; pH 1.0, KCl/HCl",remained predominantly consistent with the Form III hydrobromide
same,Thermodynamic Solubility,"[7]; pH 1.0, KCl/HCl buffer, listed as Form III",13880 µg/mL
same,XRPD of excess solids,"[7]; pH 3.0, Citrate/Phosphate",became amorphous
same,XRPD of excess solids,"[7]; pH 4.5, Citrate/Phosphate",converted to a freebase hydrate form
same,Thermodynamic Solubility,"[7]; pH 4.5, Citrate/Phosphate",280 µg/mL
same,XRPD of excess solids,"[7]; pH 6.6, Citrate/Phosphate",converted to a freebase hydrate form
